Laboratory results from patent US20050074810A1, “Method for non-invasilvely determining the relative levels of two biological substances” (priority 2001, published 2005).

Assay: In vitro reverse iontophoretic extraction of valproate and glutamate (Example 1)
Format: in vitro ADME, pig
Settings: glutamate 60 μM
Method: The cathodal chamber was sampled only at the end of 5 hours of current passage.
Subsequent to this first period of 5 hours at 0.4 mA, a reduced current of 0.1 mA was passed for the next 19 hours, at the end of which both anodal and cathodal chambers were sampled.
The total experiment therefore lasted 24 hours.

[1] = subdermal valproate 21 μM, 4-5 h, 0.4 mA
[2] = subdermal valproate 21 μM, 5-24 h, 0.1 mA
[3] = subdermal valproate 35 μM, 4-5 h, 0.4 mA
[4] = subdermal valproate 35 μM, 5-24 h, 0.1 mA
[5] = subdermal valproate 70 μM, 4-5 h, 0.4 mA
[6] = subdermal valproate 70 μM, 5-24 h, 0.1 mA
[7] = subdermal valproate 104.5 μM, 4-5 h, 0.4 mA
[8] = subdermal valproate 104.5 μM, 5-24 h, 0.1 mA

Transport number (×10^6) (subdermal valproate 21 μM, 0-1 h): 7.89 ± 4.51 ×10^6
Extraction flux (subdermal valproate 21 μM, 0-1 h, 0.4 mA): 118 pmoles · h^−1 · cm^−2
Transport number (×10^6) (subdermal valproate 21 μM, 1-2 h): 20.6 ± 7.92 ×10^6
Extraction flux (subdermal valproate 21 μM, 1-2 h, 0.4 mA): 308 pmoles · h^−1 · cm^−2
Transport number (×10^6) (subdermal valproate 21 μM, 2-3 h): 29.5 ± 7.38 ×10^6
Extraction flux (subdermal valproate 21 μM, 2-3 h, 0.4 mA): 440 pmoles · h^−1 · cm^−2
Transport number (×10^6) (subdermal valproate 21 μM, 3-4 h): 32.1 ± 5.77 ×10^6
Extraction flux (subdermal valproate 21 μM, 3-4 h, 0.4 mA): 479 pmoles · h^−1 · cm^−2
Extraction flux [1]: 570 pmoles · h^−1 · cm^−2
Transport number (×10^6) [1]: 38.2 ± 5.19 ×10^6
Extraction flux [2]: 142 pmoles · h^−1 · cm^−2
Transport number (×10^6) [2]: 38.1 ± 6.24 ×10^6
Transport number (×10^6) (subdermal valproate 35 μM, 0-1 h): 10.4 ± 5.47 ×10^6
Extraction flux (subdermal valproate 35 μM, 0-1 h, 0.4 mA): 155 pmoles · h^−1 · cm^−2
Transport number (×10^6) (subdermal valproate 35 μM, 1-2 h): 24.6 ± 5.83 ×10^6
Extraction flux (subdermal valproate 35 μM, 1-2 h, 0.4 mA): 367 pmoles · h^−1 · cm^−2
Transport number (×10^6) (subdermal valproate 35 μM, 2-3 h): 32.4 ± 5.71 ×10^6
Extraction flux (subdermal valproate 35 μM, 2-3 h, 0.4 mA): 484 pmoles · h^−1 · cm^−2
Transport number (×10^6) (subdermal valproate 35 μM, 3-4 h): 38.2 ± 2.84 ×10^6
Extraction flux (subdermal valproate 35 μM, 3-4 h, 0.4 mA): 571 pmoles · h^−1 · cm^−2
Extraction flux [3]: 588 pmoles · h^−1 · cm^−2
Transport number (×10^6) [3]: 39.4 ± 3.28 ×10^6
Extraction flux [4]: 143 pmoles · h^−1 · cm^−2
Transport number (×10^6) [4]: 38.3 ± 4.24 ×10^6
Transport number (×10^6) (subdermal valproate 70 μM, 0-1 h): 5.92 ± 3.03 ×10^6
Extraction flux (subdermal valproate 70 μM, 0-1 h, 0.4 mA): 88 pmoles · h^−1 · cm^−2
Transport number (×10^6) (subdermal valproate 70 μM, 1-2 h): 17.9 ± 6.88 ×10^6
Extraction flux (subdermal valproate 70 μM, 1-2 h, 0.4 mA): 267 pmoles · h^−1 · cm^−2
Transport number (×10^6) (subdermal valproate 70 μM, 2-3 h): 26.0 ± 6.32 ×10^6
Extraction flux (subdermal valproate 70 μM, 2-3 h, 0.4 mA): 388 pmoles · h^−1 · cm^−2
Transport number (×10^6) (subdermal valproate 70 μM, 3-4 h): 33.1 ± 6.80 ×10^6
Extraction flux (subdermal valproate 70 μM, 3-4 h, 0.4 mA): 494 pmoles · h^−1 · cm^−2
Extraction flux [5]: 524 pmoles · h^−1 · cm^−2
Transport number (×10^6) [5]: 35.1 ± 5.52 ×10^6
Extraction flux [6]: 146 pmoles · h^−1 · cm^−2
Transport number (×10^6) [6]: 39.2 ± 6.45 ×10^6
Transport number (×10^6) (subdermal valproate 104.5 μM, 0-1 h): 9.92 ± 4.20 ×10^6
Extraction flux (subdermal valproate 104.5 μM, 0-1 h, 0.4 mA): 148 pmoles · h^−1 · cm^−2
Transport number (×10^6) (subdermal valproate 104.5 μM, 1-2 h): 24.2 ± 4.79 ×10^6
Extraction flux (subdermal valproate 104.5 μM, 1-2 h, 0.4 mA): 361 pmoles · h^−1 · cm^−2
Transport number (×10^6) (subdermal valproate 104.5 μM, 2-3 h): 32.8 ± 3.60 ×10^6
Extraction flux (subdermal valproate 104.5 μM, 2-3 h, 0.4 mA): 490 pmoles · h^−1 · cm^−2
Transport number (×10^6) (subdermal valproate 104.5 μM, 3-4 h): 37.9 ± 4.98 ×10^6
Extraction flux (subdermal valproate 104.5 μM, 3-4 h, 0.4 mA): 566 pmoles · h^−1 · cm^−2
Extraction flux [7]: 599 pmoles · h^−1 · cm^−2
Transport number (×10^6) [7]: 40.1 ± 5.16 ×10^6
Extraction flux [8]: 157 pmoles · h^−1 · cm^−2
Transport number (×10^6) [8]: 42.2 ± 6.22 ×10^6
SMILES: N[C@@H](CCC(=O)O)C(=O)O [Glutamate, glutamate]
